Melting point data for eleven compounds are collected here from US20070179154A1, “Coumarin derivatives, process for their production and use thereof” (Takeda Pharmaceutical Company Limited, priority 2002, published 2007).

One may read the melting point as the temperature of the solid-liquid transition. Take `O=C(O)CCc1cccc(-c2c(CC(=O)Nc3ccc(F)cc3C(F)(F)F)c(=O)oc3cc(Cl)ccc23)c1` [Example 23, 3-[3-[7-chloro-3-[2-[[4-fluoro-2-(trifluoromethyl)phenyl]amino]-2-oxoethyl]-2-oxo-2H-chromen-4-yl]phenyl]propionic acid]: the melting point lay within 211 to 212 °C.

`CCOC(=O)/C=C/c1cccc(-c2c(CC(=O)Nc3ccc(F)cc3C(F)(F)F)c(=O)oc3cc(C)c(Cl)cc23)c1` [Example 5, ethyl (2E)-3-[3-[6-chloro-3-[2-[[4-fluoro-2-(trifluoromethyl)phenyl]amino]-2-oxoethyl]-7-methyl-2-oxo-2H-chromen-4-yl]phenyl]-2-propenoate] displayed a melting point of 206 to 209 °C.

`CCOC(=O)/C=C/c1cccc(-c2c(CC(=O)Nc3ccc(F)cc3C(F)(F)F)c(=O)oc3cc(Cl)ccc23)c1` [Example 7, ethyl (2E)-3-[3-[7-chloro-3-[2-[[4-fluoro-2-(trifluoromethyl)phenyl]amino]-2-oxoethyl]-2-oxo-2H-chromen-4-yl]phenyl]-2-propenoate] showed a melting point of 166 to 169 °C.

For the compound `Cc1cc2c(-c3cccc(CCc4nnn[nH]4)c3)c(CC(=O)Nc3ccc(F)cc3C(F)(F)F)c(=O)oc2cc1Cl` [Example 98], the melting point was in the range of 244 to 246 °C.

Consider `Cc1cc2c(-c3cccc(CCC(=O)O)c3)c(CC(=O)Nc3ccc(F)cc3C(F)(F)F)c(=O)oc2cc1Cl` [Example 14, 3-[5-[7-chloro-3-[2-[[4-fluoro-2-(trifluoromethyl)phenyl]amino]-2-oxoethyl]-6-methyl-2-oxo-2H-chromen-4-yl]phenyl]propionic acid], for which the melting point was in the range of 212 to 214 °C.

In the case of `O=C(O)/C=C/c1cccc(-c2c(CC(=O)Nc3ccc(F)cc3C(F)(F)F)c(=O)oc3cc(Cl)c(F)cc23)c1` [Example 17, (2E)-3-[3-[7-chloro-6-fluoro-3-[2-[[4-fluoro-2-(trifluoromethyl)phenyl]amino]-2-oxoethyl]-2-oxo-2H-chromen-4-yl]phenyl]-2-propenoic acid], the melting point was 245 to 247 °C.

On to `CCOC(=O)CSCc1cccc(-c2c(CC(=O)Nc3ccc(F)cc3C(F)(F)F)c(=O)oc3cc(Cl)c(C)cc23)c1` [Example 63, Ethyl ({3-[7-chloro-3-(2-{[4-fluoro-2-(trifluoromethyl)phenyl]amino}-2-oxoethyl)-6-methyl-2-oxo-2H-chromen-4-yl]benzyl}thio)acetate], for which the melting point was 106 to 108 °C.

Take `Cc1cc2c(-c3cccc(CCC(=O)O)c3)c(CC(=O)Nc3ccccc3C(F)(F)F)c(=O)oc2cc1Cl` [Example 20, 3-[3-[7-chloro-6-methyl-2-oxo-3-(2-oxo-2-[[2-(trifluoromethyl)phenyl]amino]ethyl)-2H-chromen-4-yl]phenyl]propionic acid]: the melting point is 150 °C (dec.).

In the case of `CCOC(=O)/C=C/C=C/c1cccc(-c2c(CC(=O)Nc3ccc(F)cc3C(F)(F)F)c(=O)oc3cc(Cl)c(C)cc23)c1` [Example 51, Ethyl (2E,4E)-5-[3-(7-chloro-3-{2-[4-fluoro-2-(trifluoromethyl)anilino]-2-oxoethyl}-6-methyl-2-oxo-2H-chromen-4-yl)phenyl]-2,4-pentadienoate], the melting point lay in the range of 216 to 218 °C.

`Cc1cc2oc(=O)c(CC(=O)Nc3ccc(F)cc3C(F)(F)F)c(-c3cccc(CCC(=O)O)c3)c2cc1Cl` [Example 21, 3-[3-[6-chloro-3-(2-[[4-fluoro-2-(trifluoromethyl)phenyl]amino]-2-oxoethyl)-7-methyl-2-oxo-2H-chromen-4-yl]phenyl]propionic acid] displayed a melting point of 240 to 242 °C.

As for `Cc1cc2c(-c3cccc(C(=O)NC(C)C)c3)c(CC(=O)Nc3ccc(Cl)cc3C(F)(F)F)c(=O)oc2cc1Cl` [Example 121], the melting point lay in the range of 215 to 217 °C.
